Test [1] has as its system Enterococcus faecalis. As to the kind of experiment: Antimicrobial activity against Enterococcus faecalis expressing rRNA methylase gene erm(A) obtained from pig manure by broth microdilution method. It is filed as functional.
The test system of test [2] is Enterococcus faecalis. Nature of the test: Antimicrobial activity against Enterococcus faecalis expressing rRNA methylase gene erm(A) obtained from human by broth microdilution method. It is filed as functional. For orientation: In broth dilution the organism is exposed to a series of concentrations in liquid medium.

Experimental findings from ChEMBL document CHEMBL1275463, “Detection of the erythromycin rRNA methylase gene erm(A) in Enterococcus faecalis” (2008) are described below.

One may read the MIC as the smallest concentration in the dilution series that meets the test's criterion for growth inhibition. Read a low MIC as inhibition by little substance.

≈ marks a conversion by molar mass, not a printed value.

Consider `CC[C@H]1OC(=O)[C@H](C)[C@@H](O[C@H]2C[C@@](C)(OC)[C@@H](O)[C@H](C)O2)[C@H](C)[C@@H](O[C@@H]2O[C@H](C)C[C@H](N(C)C)[C@H]2O)[C@](C)(O)C[C@@H](C)C(=O)[C@H](C)[C@@H](O)[C@]1(C)O` [ERYTHROMYCIN], for which the minimal inhibitory concentration (MIC) against Enterococcus faecalis [1] was over 8 µg/mL; with Enterococcus faecalis [2] it was 1 µg/mL (≈ 1.36 µM).
In the same order, the values of `CN(C)[C@@H]1C(O)=C(C(N)=O)C(=O)[C@@]2(O)C(O)=C3C(=O)c4c(O)cccc4[C@@](C)(O)[C@H]3C[C@@H]12` [TETRACYCLINE] are over 4 µg/mL and over 4 µg/mL.
